Experimental data from article PMC11850406, “Large-scale screening of HIV-1 T-cell epitopes restricted by 12 prevalent HLA-A allotypes in Northeast Asia and universal detection of HIV-1-specific CD8^+ T cells” (Frontiers in Microbiology, 2025).
Where no end group is shown, it is not given here.

Key:
HLA-A0207 = target: T1, HLA-A0207 (Homo sapiens, UniProt P04439, D140Y/D185E/D98H/E176V/E277Q/G131W/G231S/I119V/I121R/I166T/I218V/L300P/L318F/N151K/N90K/P208A/P217A/Q86G/Q94H/R138H/R169H/T345S/Y123C); assay: Peptide competitive binding assay, HMy2.CIR cells expressing A0207; conditions: 24 h, 4°C, flow cytometry
T1 construct: expressed in transfected cells; host or cells: HMy2.CIR

HLA-A1102 = HLA-A1102 (Homo sapiens, UniProt P04439, A114D/D185E/E176A/E43K/F33Y/L180Q/S129P/T187R); assay: cell-based; assay type: binding; conditions: for inhibition at 5 µM: read-out: 5-μM inhibition (%); for inhibition at 15 µM: read-out: 15-μM inhibition (%)
HLA-A3001 = target: T2, HLA-A3001 (Homo sapiens, UniProt P04439, D140H/D185E/E176W/F33S/G80R/H175R/K168Q/R138E/R41S); assay: cell-based; assay type: binding
T2 construct: expressed in transfected cells; host or cells: HMy2.CIR

HLA-A1101 = target: T3, HLA-A1101 (Homo sapiens, UniProt P04439, A114D/D185E/E176A/F33Y/L180Q/S129P/T187R); assay: cell-based; assay type: binding; conditions: for inhibition at 5 µM / inhibition at 15 µM: A1101, 24 h, 4°C, flow cytometry; for inhibition at 5 µM: peptide 5 μM vs FITC-labeled reference peptide 300 nM, read-out: 5-μM inhibition (%); for inhibition at 15 µM: peptide 15 μM vs FITC-labeled reference peptide 300 nM, read-out: 15-μM inhibition (%)
T3 construct: expressed in transfected cells; host or cells: HMy2.CIR

HLA-A0201 = target: T4, HLA-A0201 (Homo sapiens, UniProt P04439, D140Y/D185E/D98H/E176V/E277Q/G131W/G231S/I119V/I121R/I166T/I218V/L300P/L318F/N151K/N90K/P208A/P217A/Q86G/Q94H/R138H/R169H/T345S); assay: cell-based; assay type: binding
T4 construct: expressed in transfected cells; host or cells: HMy2.CIR

HLA-A0203 = target: T5, HLA-A0203 (Homo sapiens, UniProt P04439, A173T/D140Y/D185E/D98H/E277Q/G131W/G231S/I119V/I121R/I166T/I218V/L180W/L300P/L318F/N151K/N90K/P208A/P217A/Q86G/Q94H/R138H/R169H/T345S); assay: cell-based; assay type: binding; conditions: A0203, 24 h, 4°C, flow cytometry
T5 construct: expressed in transfected cells; host or cells: HMy2.CIR

[1] = peptide 5 μM vs FITC-labeled reference peptide 300 nM
[2] = peptide 15 μM vs FITC-labeled reference peptide 300 nM
[3] = A1102, peptide 5 μM vs FITC-labeled reference peptide 300 nM, 24 h, 4°C, flow cytometry
[4] = A1102, peptide 15 μM vs FITC-labeled reference peptide 300 nM, 24 h, 4°C, flow cytometry
[5] = A3001, peptide 5 μM vs FITC-labeled reference peptide 300 nM, 24 h, 4°C, flow cytometry
[6] = A3001, peptide 15 μM vs FITC-labeled reference peptide 300 nM, 24 h, 4°C, flow cytometry
[7] = A0201, peptide 5 μM vs FITC-labeled reference peptide 300 nM, 24 h, 4°C, flow cytometry
[8] = A0201, peptide 15 μM vs FITC-labeled reference peptide 300 nM, 24 h, 4°C, flow cytometry

QLTEVVQKV [Peptide P80]
5-μM inhibition (%) (HLA-A0207; [1]): 20.67%
15-μM inhibition (%) (HLA-A0207; [2]): 25.60%

RANSPTSRK [Peptide P88]
5-μM inhibition (%) (HLA-A1102; [3]): 0.00%
15-μM inhibition (%) (HLA-A1102; [4]): 0.35%

RLRGFILVA [Peptide P92]
5-μM inhibition (%) (HLA-A3001; [5]): 18.53%
15-μM inhibition (%) (HLA-A3001; [6]): 39.48%

RLRPGGRKK [Peptide P89]
5-μM inhibition (%) (HLA-A3001; [5]): 27.40%
15-μM inhibition (%) (HLA-A3001; [6]): 39.48%

RVRQGYSPL [Peptide P91]
IC50 (HLA-A3001): < 5 µM
inhibition at 5 µM (HLA-A3001; A3001, peptide 5 μM vs FITC-labeled reference peptide 300 nM, 24 h, 4°C, flow cytometry, read-out: 5-μM inhibition (%)): 92.4%
inhibition at 15 µM (HLA-A3001; A3001, peptide 15 μM vs FITC-labeled reference peptide 300 nM, 24 h, 4°C, flow cytometry, read-out: 15-μM inhibition (%)): 100%

SILDIRQGPK [Peptide P33]
IC50 (HLA-A1101): < 5 µM
inhibition at 5 µM (HLA-A1101): 83.2%
inhibition at 15 µM (HLA-A1101): 93.1%
IC50 (HLA-A1102): 5 to 15 µM
inhibition at 5 µM (HLA-A1102; [3]): 16.8%
inhibition at 15 µM (HLA-A1102; [4]): 50.6%

SLFNTVATL [Peptide P10]
5-μM inhibition (%) (HLA-A0201; [7]): 15.75%
15-μM inhibition (%) (HLA-A0201; [8]): 31.36%
5-μM inhibition (%) (HLA-A0203; [1]): 20.39%
15-μM inhibition (%) (HLA-A0203; [2]): 42.50%
5-μM inhibition (%) (HLA-A0207; [1]): 0.00%
15-μM inhibition (%) (HLA-A0207; [2]): 7.34%

TSLPKQEQK [Peptide P31]
IC50 (HLA-A1101): < 5 µM
inhibition at 5 µM (HLA-A1101): 75.2%
inhibition at 15 µM (HLA-A1101): 86.5%
inhibition at 5 µM (HLA-A1102; [3]): 4.16%
inhibition at 15 µM (HLA-A1102; [4]): 18%

VLDVGDAYF [Peptide P81]
5-μM inhibition (%) (HLA-A0207; [1]): 0.00%
15-μM inhibition (%) (HLA-A0207; [2]): 23.16%

YLKDQKFLGL [Peptide P78]
5-μM inhibition (%) (HLA-A0207; [1]): 11.50%
15-μM inhibition (%) (HLA-A0207; [2]): 30.40%

YMEAEVIPA [Peptide P82]
5-μM inhibition (%) (HLA-A0207; [1]): 13.67%
15-μM inhibition (%) (HLA-A0207; [2]): 30.79%

YQLEKDPIV [Peptide P11]
5-μM inhibition (%) (HLA-A0201; [7]): 5.87%
15-μM inhibition (%) (HLA-A0201; [8]): 28.56%
5-μM inhibition (%) (HLA-A0207; [1]): 5.57%
15-μM inhibition (%) (HLA-A0207; [2]): 12.66%

YQYMDDLYV [Peptide P15]
IC50 (HLA-A0201): < 5 µM
inhibition at 5 µM (HLA-A0201; A0201, peptide 5 μM vs FITC-labeled reference peptide 300 nM, 24 h, 4°C, flow cytometry, read-out: 5-μM inhibition (%)): 56.5%
inhibition at 15 µM (HLA-A0201; A0201, peptide 15 μM vs FITC-labeled reference peptide 300 nM, 24 h, 4°C, flow cytometry, read-out: 15-μM inhibition (%)): 83%
inhibition at 5 µM (HLA-A0207; [1]): 20.1%
inhibition at 15 µM (HLA-A0207; [2]): 27.6%

YVDRFFKTL [Peptide P76]
5-μM inhibition (%) (HLA-A0207; [1]): 11.90%
15-μM inhibition (%) (HLA-A0207; [2]): 30.60%
